Laboratory results: patent US20200017496A1 (priority 2017, published 2020)
Read-outs that look alike come from different tables or passages of the source.

Experiments:
Assay in all cases: MIC of compounds alone and combined with antibacterials, broth microdilution (CLSI)
Assay type in all cases: cell-based
[1] = tested on: Klebsiella pneumoniae (KPN) isolates; details: for MIC: Klebsiella pneumoniae
Method in brief: (§1)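 Log-phase bacteria at a final 5·10^5 CFU/mL in cation-adjusted Mueller-Hinton broth were incubated 16-20 h at 35° C in ambient air with compound alone or with an antibacterial. MIC was the lowest concentration preventing visible growth; combination MIC of the antibacterial was read at each compound concentration.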

[2] = tested on: Morganella morganii (MMO) isolates; details: for MIC: Morganella morganii, ATB alone, read-out: MIC
Method in brief: as §1

[3] = tested on: Serratia marcescens (SMA) isolates; details: for MIC: Serratia marcescens
Method in brief: as §1

## CC(C)(O/N=C(\C(=O)N[C@@H]1C(=O)N2C(C(=O)[O-])=C(C[n+]3ccccc3)CS[C@H]12)c1csc(N)n1)C(=O)O [CAZ, Ceftazidime]
[1]; KPN UFR81, AF1 @ 4 μg/mL
  MIC ATB in combination: 2 mg/L
[1]; KPN UFR81, AF1 @ 8 μg/mL
  MIC ATB in combination: 0.5 mg/L
[1]; KPN UFR215, AF1 @ 4 μg/mL
  MIC ATB in combination: <=0.25 μg/mL
[1]; KPN UFR215, AF1 @ 8 μg/mL
  MIC ATB in combination: <=0.25 μg/mL
[1]; KPN UFR216, AF1 @ 4 μg/mL
  MIC ATB in combination: <=0.25 μg/mL
[1]; KPN UFR216, AF1 @ 8 μg/mL
  MIC ATB in combination: <=0.25 μg/mL
[1]; KPN UFR217, AF1 @ 4 μg/mL
  MIC ATB in combination: <=0.25 μg/mL
[1]; KPN UFR217, AF1 @ 8 μg/mL
  MIC ATB in combination: <=0.25 μg/mL
[1]; KPN UFR219, AF1 @ 4 μg/mL
  MIC ATB in combination: 0.5 mg/L
[1]; KPN UFR219, AF1 @ 8 μg/mL
  MIC ATB in combination: <=0.25 μg/mL
[1]; KPN UFR220, AF1 @ 4 μg/mL
  MIC ATB in combination: 2 mg/L
[1]; KPN UFR220, AF1 @ 8 μg/mL
  MIC ATB in combination: 1 mg/L
[1]; KPN UFR221, AF1 @ 4 μg/mL
  MIC ATB in combination: 0.5 mg/L
[1]; KPN UFR221, AF1 @ 8 μg/mL
  MIC ATB in combination: <=0.25 μg/mL
[1]; KPN UFR222, AF1 @ 4 μg/mL
  MIC ATB in combination: 8 mg/L
[1]; KPN UFR222, AF1 @ 8 μg/mL
  MIC ATB in combination: 4 mg/L
[1]; KPN UFR227O, AF1 @ 4 μg/mL
  MIC ATB in combination: 2 mg/L
[1]; KPN UFR227O, AF1 @ 8 μg/mL
  MIC ATB in combination: 1 mg/L
[1]; BAA1898
  MIC: 256 mg/L
[1]; strain KPN 200327 (TEM-1, SHV-1, CTX-M-15, OXA-1), ATB alone, read-out: MIC
  MIC: 32 mg/L
[1]; strain KPN LIB (SHV-11, OXA-48), ATB alone, read-out: MIC
  MIC: 0.25 mg/L
[1]; strain KPN UFR22_O (TEM-1, SHV-1, OXA-48), ATB alone, read-out: MIC
  MIC: 2 mg/L
[1]; strain KPN UFR23 (TEM-1, SHV-1, OXA-48), ATB alone, read-out: MIC
  MIC: 0.5 mg/L
[1]; strain KPN UFR77 (CMY-2), ATB alone, read-out: MIC
  MIC: 32 mg/L
[1]; strain KPN UFR79 (DHA-1, OXA-1), ATB alone, read-out: MIC
  MIC: 16 mg/L
[1]; strain KPN UFR80 (SHV-11, DHA-1, OXA-1), ATB alone, read-out: MIC
  MIC: 0.5 mg/L
[1]; strain KPN UFR221 (TEM-1, SHV-11, CTX-M-14, DHA-1), ATB alone, read-out: MIC
  MIC: 16 mg/L
[2]; MMO 200321, AF1 @ 4 μg/mL
  MIC ATB in combination: <=0.25 μg/mL
[2]; MMO UFR144, AF1 @ 4 μg/mL
  MIC ATB in combination: <=0.25 μg/mL
[2]; MMO UFR144, AF1 @ 8 μg/mL
  MIC ATB in combination: <=0.25 μg/mL
[2]; MMO UFR240, AF1 @ 4 μg/mL
  MIC ATB in combination: <=0.25 μg/mL
[2]; MMO UFR240, AF1 @ 8 μg/mL
  MIC ATB in combination: <=0.25 μg/mL
[2]; MMO UFR241, AF1 @ 4 μg/mL
  MIC ATB in combination: <=0.25 μg/mL
[2]; MMO UFR241, AF1 @ 8 μg/mL
  MIC ATB in combination: <=0.25 μg/mL
[2]; MMO UFR242, AF1 @ 4 μg/mL
  MIC ATB in combination: 2 mg/L
[2]; MMO UFR242, AF1 @ 8 μg/mL
  MIC ATB in combination: 0.25 mg/L
[2]; MMO UFR243, AF1 @ 4 μg/mL
  MIC ATB in combination: <=0.25 μg/mL
[2]; MMO UFR243, AF1 @ 8 μg/mL
  MIC ATB in combination: <=0.25 μg/mL
[2]; MMO UFR244, AF1 @ 4 μg/mL
  MIC ATB in combination: <=0.25 μg/mL
[2]; MMO UFR244, AF1 @ 8 μg/mL
  MIC ATB in combination: <=0.25 μg/mL
[2]; MMO UFR245, AF1 @ 4 μg/mL
  MIC ATB in combination: <=0.25 μg/mL
[2]; MMO UFR245, AF1 @ 8 μg/mL
  MIC ATB in combination: <=0.25 μg/mL
[2]; MMO UFR246, AF1 @ 4 μg/mL
  MIC ATB in combination: <=0.25 μg/mL
[2]; MMO UFR246, AF1 @ 8 μg/mL
  MIC ATB in combination: <=0.25 μg/mL
[2]; strain MMO 200321 (TEM-1, CTX-M-15, OXA-1)
  MIC: 16 mg/L
[2]; strain MMO UFR144 (TEM-1, CTX-M-15)
  MIC: 8 mg/L
[2]; strain MMO UFR241 (TEM-1, CTX-M-15)
  MIC: 8 mg/L
[2]; strain MMO UFR242 (TEM-52)
  MIC: 32 mg/L
[2]; strain MMO UFR243 (DHA-1)
  MIC: 1 mg/L
[2]; strain MMO UFR245 (DHA-1)
  MIC: 8 mg/L
[2]; strain MMO UFR246 (DHA-1)
  MIC: 4 mg/L
[3]; SMA UFR30, AF1 @ 4 μg/mL
  MIC ATB in combination: <=0.25 μg/mL
[3]; SMA UFR30, AF1 @ 8 μg/mL
  MIC ATB in combination: <=0.25 μg/mL
[3]; SMA UFR134, AF1 @ 8 μg/mL
  MIC ATB in combination: <=0.25 μg/mL
[3]; SMA UFR135, AF1 @ 4 μg/mL
  MIC ATB in combination: 2 mg/L
[3]; SMA UFR135, AF1 @ 8 μg/mL
  MIC ATB in combination: 1 mg/L
[3]; SMA UFR136, AF1 @ 4 μg/mL
  MIC ATB in combination: 2 mg/L
[3]; SMA UFR136, AF1 @ 8 μg/mL
  MIC ATB in combination: 1 mg/L
[3]; SMA UFR137, AF1 @ 4 μg/mL
  MIC ATB in combination: <=0.25 μg/mL
[3]; SMA UFR137, AF1 @ 8 μg/mL
  MIC ATB in combination: <=0.25 μg/mL
[3]; SMA UFR138, AF1 @ 4 μg/mL
  MIC ATB in combination: <=0.25 μg/mL
[3]; SMA UFR138, AF1 @ 8 μg/mL
  MIC ATB in combination: <=0.25 μg/mL
[3]; SMA UFR139, AF1 @ 4 μg/mL
  MIC ATB in combination: <=0.25 μg/mL
[3]; SMA UFR139, AF1 @ 8 μg/mL
  MIC ATB in combination: <=0.25 μg/mL
[3]; SMA UFR141, AF1 @ 8 μg/mL
  MIC ATB in combination: <=0.25 μg/mL
[3]; SMA UFR239, AF1 @ 4 μg/mL
  MIC ATB in combination: 8 mg/L
[3]; SMA UFR239, AF1 @ 8 μg/mL
  MIC ATB in combination: 4 mg/L
[3]
  MIC: > 256 mg/L
[3]; strain SMA UFR30 (OXA-405), ATB alone, read-out: MIC
  MIC: 8 mg/L
[3]; strain SMA UFR134 (TEM-1, BES-1), ATB alone, read-out: MIC
  MIC: 8 mg/L
[3]; strain SMA UFR135 (TEM-1, KPC-2), ATB alone, read-out: MIC
  MIC: 32 mg/L
[3]; strain SMA UFR138 (SME-1), ATB alone, read-out: MIC
  MIC: ≤ 0.25 mg/L
[3]; strain SMA UFR139 (SME-2), ATB alone, read-out: MIC
  MIC: ≤ 0.25 mg/L
[3]; strain SMA UFR141 (OXA-48), ATB alone, read-out: MIC
  MIC: 1 mg/L
[3]; strain SMA UFR239 (ESAC), ATB alone, read-out: MIC
  MIC: 32 mg/L
[3]; strain SMA UFR238, antibacterial combined with AF1 @ 8 μg/mL
  MIC ATB in combination: <=0.25 μg/mL
